Laboratory results as given in ChEMBL document CHEMBL1201862, “PubChem BioAssay data set” (2004).
The source made the active and inactive calls.

What was measured:
[1] = biological target: Hexokinase HKDC1 (Homo sapiens, UniProt Q2TB90); test: activation of HKDC1 glucose phosphorylation – biochemical, W721R variant, dose response (AID 504730); assay type: functional
[2] = biological target: ATP-dependent molecular chaperone HSP82 (Candida albicans (strain WO-1) (Yeast), UniProt C4YTQ8); test: steroid-induced GRE reporter decrease in yeast – S. cerevisiae, luminescence, Hsp90 inhibitor project, dose response (AID 2400); assay type: functional, cell-based;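 also: beta-galactosidase luminescence from glucocorticoid response element reporter as proxy for Hsp90 function; inhibitor potency where signal loss means Hsp90 inhibition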
Sequence of ATP-dependent molecular chaperone HSP82 (C4YTQ8 whole entry): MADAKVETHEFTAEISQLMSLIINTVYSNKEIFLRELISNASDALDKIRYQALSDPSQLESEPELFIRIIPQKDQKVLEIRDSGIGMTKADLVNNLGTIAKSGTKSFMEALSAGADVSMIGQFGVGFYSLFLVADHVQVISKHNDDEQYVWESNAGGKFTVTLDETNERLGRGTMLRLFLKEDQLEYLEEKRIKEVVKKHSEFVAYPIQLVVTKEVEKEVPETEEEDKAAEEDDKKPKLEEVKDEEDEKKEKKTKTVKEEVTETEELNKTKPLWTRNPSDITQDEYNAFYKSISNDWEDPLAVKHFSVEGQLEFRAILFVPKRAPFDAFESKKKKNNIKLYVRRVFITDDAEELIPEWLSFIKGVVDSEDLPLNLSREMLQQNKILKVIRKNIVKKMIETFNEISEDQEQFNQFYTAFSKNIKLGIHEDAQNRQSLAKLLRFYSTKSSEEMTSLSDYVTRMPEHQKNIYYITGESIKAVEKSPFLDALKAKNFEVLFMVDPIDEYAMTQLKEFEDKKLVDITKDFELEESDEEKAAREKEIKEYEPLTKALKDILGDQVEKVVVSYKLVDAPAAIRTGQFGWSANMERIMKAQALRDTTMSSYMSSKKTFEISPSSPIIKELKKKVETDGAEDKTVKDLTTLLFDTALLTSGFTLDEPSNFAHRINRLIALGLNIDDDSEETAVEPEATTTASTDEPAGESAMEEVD

Sequence of Hexokinase HKDC1 (Q2TB90 whole entry): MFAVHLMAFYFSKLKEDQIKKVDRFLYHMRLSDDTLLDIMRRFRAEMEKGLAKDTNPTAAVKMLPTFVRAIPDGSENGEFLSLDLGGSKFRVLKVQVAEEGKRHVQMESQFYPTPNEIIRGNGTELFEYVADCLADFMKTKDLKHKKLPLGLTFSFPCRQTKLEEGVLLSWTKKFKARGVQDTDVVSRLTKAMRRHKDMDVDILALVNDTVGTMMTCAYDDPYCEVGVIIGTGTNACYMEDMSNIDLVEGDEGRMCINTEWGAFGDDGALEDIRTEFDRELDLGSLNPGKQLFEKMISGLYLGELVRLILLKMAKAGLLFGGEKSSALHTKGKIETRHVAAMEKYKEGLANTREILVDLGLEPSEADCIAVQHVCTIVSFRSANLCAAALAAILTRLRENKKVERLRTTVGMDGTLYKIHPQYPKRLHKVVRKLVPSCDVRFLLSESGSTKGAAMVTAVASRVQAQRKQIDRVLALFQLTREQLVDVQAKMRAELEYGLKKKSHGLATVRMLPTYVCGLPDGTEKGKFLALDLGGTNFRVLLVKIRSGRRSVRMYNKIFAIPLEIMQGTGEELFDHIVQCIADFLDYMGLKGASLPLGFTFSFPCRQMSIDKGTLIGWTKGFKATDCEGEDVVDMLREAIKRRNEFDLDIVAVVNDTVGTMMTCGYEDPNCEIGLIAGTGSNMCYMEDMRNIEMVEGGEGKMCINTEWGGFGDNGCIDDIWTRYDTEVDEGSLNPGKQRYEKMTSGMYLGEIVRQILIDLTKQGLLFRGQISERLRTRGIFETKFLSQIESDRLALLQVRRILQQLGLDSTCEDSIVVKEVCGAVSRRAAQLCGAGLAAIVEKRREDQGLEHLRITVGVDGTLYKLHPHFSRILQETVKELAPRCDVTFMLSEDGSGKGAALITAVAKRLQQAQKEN

## CCCCC(=O)NC(c1ccc(N(CC)CC)cc1)c1ccc2cccnc2c1O (configuration not stated)
[1]
  EC50: 13.3 µM (active)
[2]
  EC50: > 150 µM (inactive)
